# Compound: C1=CC2=C(C=C(C(=C2N=C1)O)N=NC3=CC4=C(C=C3)C=C(C=C4)S(=O)(=O)O)S(=O)(=O)O + C[C@@H](Oc1cc(-c2cnn(C3CCNCC3)c2)cnc1N)c1c(Cl)ccc(F)c1Cl [Crizotinib] (partner 1 µM)
# Test: relative viability (nuclei count vs DMSO), 5 days (fraction); higher = more cells survive
# Settings: first compound 0.08 µM
# How it was run: (§1)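 Medians of duplicate plates are given as relative viability. That measure is the nuclei count in treated wells divided by the count in vehicle wells. Counts were taken on 4× images of lung cancer cell lines in 1536-well plates, 5 days after pin-tool dosing the day after seeding with one drug alone or a fixed anchor-drug dose plus five library-drug doses (not always all listed) in √10 steps.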
row,Cell Line,relative viability
1,NCI-H1755,0.977
2,NCI-H2023,0.831
3,HCC-15,0.957
4,PC-14,0.944
5,EKVX,0.997
6,LC-2-ad,0.534
7,NCI-H1563,0.875
8,NCI-H1944,1.24

# Same assay, conditions: first compound 0.253 µM
row,Cell Line,relative viability
1,BEN,0.872
2,HARA,1.01
3,HCC-78,0.336
4,NCI-H322M,0.892
5,LCLC-97TM1,0.35
6,NCI-H2009,1.04
7,A-427,0.814
8,NCI-H661,0.905
9,NCI-H1734,0.66
10,NCI-H460,0.98
11,NCI-H2347,0.674
12,SK-LU-1,0.952
13,201T,1.07
14,NCI-H1915,0.864
15,HCC-827,0.886
16,LXF-289,0.762
17,NCI-H23,0.614

row,Cell Line,relative viability
1,NCI-H647,0.865
2,CAL-12T,0.528
3,NCI-H1651,0.834
4,EPLC-272H,0.883
5,NCI-H2228,0.597
6,NCI-H1792,0.947
7,NCI-H1355,1.04
8,NCI-H3122,0.29
9,NCI-H1437,0.894
10,NCI-H1755,0.819
11,NCI-H2023,0.702
12,HCC-15,0.851
13,PC-14,0.833
14,EKVX,0.959
15,LC-2-ad,0.412
16,NCI-H1563,0.883
17,NCI-H1944,1.1

# Same assay, conditions: first compound 0.8 µM
row,Cell Line,relative viability
1,BEN,0.792
2,HARA,1.03
3,HCC-78,0.328
4,NCI-H322M,0.904
5,NCI-H2009,1.09
6,A-427,0.978
7,NCI-H1734,0.724
8,NCI-H460,0.85
9,NCI-H2347,0.651
10,SK-LU-1,0.854
11,201T,1.02
12,NCI-H1915,0.893
13,HCC-827,0.971
14,LXF-289,0.792
15,NCI-H23,0.463
16,NCI-H647,1.05

row,Cell Line,relative viability
1,CAL-12T,0.711
2,NCI-H1651,0.837
3,EPLC-272H,0.977
4,NCI-H2228,0.642
5,NCI-H1792,0.933
6,NCI-H1355,0.986
7,NCI-H3122,0.275
8,NCI-H1437,0.897
9,NCI-H1755,0.858
10,NCI-H2023,0.654
11,HCC-15,0.806
12,PC-14,0.907
13,EKVX,1
14,LC-2-ad,0.462
15,NCI-H1563,0.886
16,NCI-H1944,1.09

# Same assay, conditions: first compound 2.53 µM
row,Cell Line,relative viability
1,BEN,0.925
2,HARA,1.02
3,HCC-78,0.337
4,NCI-H322M,1.07
5,LCLC-97TM1,0.424
6,NCI-H2009,1.07
7,A-427,1
8,NCI-H661,1.01
9,NCI-H1734,0.64
10,NCI-H460,1.09
11,NCI-H2347,0.768
12,SK-LU-1,0.923
13,201T,1.09
14,NCI-H1915,0.912
15,HCC-827,0.911
16,LXF-289,0.835
17,NCI-H23,0.533

row,Cell Line,relative viability
1,NCI-H647,1.08
2,CAL-12T,0.932
3,NCI-H1651,0.874
4,EPLC-272H,0.978
5,NCI-H2228,0.587
6,NCI-H1792,1.02
7,NCI-H1355,1.17
8,NCI-H3122,0.271
9,NCI-H1437,0.909
10,NCI-H1755,0.938
11,NCI-H2023,0.726
12,HCC-15,0.824
13,PC-14,0.892
14,EKVX,0.894
15,LC-2-ad,0.452
16,NCI-H1563,0.851
17,NCI-H1944,1.12

# Same assay, conditions: first compound 8 µM
row,Cell Line,relative viability
1,BEN,0.813
2,HARA,1.04
3,HCC-78,0.203
4,NCI-H322M,1.02
5,LCLC-97TM1,0.325
6,NCI-H2009,1.02
7,A-427,0.876
8,NCI-H661,0.971
9,NCI-H1734,0.662
10,NCI-H460,0.836
11,NCI-H2347,0.636
12,SK-LU-1,0.93
13,201T,0.995
14,NCI-H1915,0.925
15,HCC-827,0.998
16,LXF-289,0.741
17,NCI-H23,0.51

row,Cell Line,relative viability
1,NCI-H647,0.962
2,CAL-12T,0.717
3,NCI-H1651,0.729
4,EPLC-272H,0.964
5,NCI-H2228,0.482
6,NCI-H1792,0.961
7,NCI-H1355,1.14
8,NCI-H3122,0.274
9,NCI-H1437,0.919
10,NCI-H1755,0.849
11,NCI-H2023,0.483
12,HCC-15,0.77
13,PC-14,0.941
14,EKVX,0.915
15,LC-2-ad,0.411
16,NCI-H1563,0.873
17,NCI-H1944,0.846

# Compound: C1=CC2=C(C=C(C(=C2N=C1)O)N=NC3=CC4=C(C=C3)C=C(C=C4)S(=O)(=O)O)S(=O)(=O)O + CS(=O)(=O)CCNCc1ccc(-c2ccc3ncnc(Nc4ccc(OCc5cccc(F)c5)c(Cl)c4)c3c2)o1 [Lapatinib] (partner 2 µM)
# Test: as above
# Settings: first compound 0.08 µM
# How it was run: as §1
row,Cell Line,relative viability
1,BEN,0.956
2,HARA,0.836
3,HCC-78,0.763
4,NCI-H322M,0.627
5,NCI-H2009,0.898
6,A-427,1.16
7,NCI-H661,0.541
8,NCI-H1734,1.13
9,NCI-H460,1.53
10,NCI-H2347,1.05
11,SK-LU-1,1.06
12,201T,0.975
13,NCI-H1915,1.06
14,HCC-827,0.19
15,LXF-289,0.934
16,NCI-H23,1.31
17,NCI-H647,1.64

# Source: the supplement of paper PMC10307832
